Test results reported in US9668967B2, “Lipid formulations comprising a thiolated antioxidant” (CAMURUS AB, priority 2008, dated 2017).

Key:
[1] = Exploratory stability study of glucagon lipid formulations, 25° C./60% RH for 7 days (NP HPLC); type: physicochemical; details: for assayed GLU content as % of initial (time zero) GLU content (FIG. 3): antioxidant 0.3 wt % (BHT 0.1 wt %), compared with antioxidant-free control
Experimental: To prevent breakdown of glucagon resulting from oxidation of the methionine residue (giving Met(O)27glucagon), an antioxidant may be included in the compositions of the present invention. To establish the most suitable antioxidant, various common and less common antioxidants were tested in the peptide/lipid system of the present invention.
Note that the antioxidant content in the respective formulations, except for the reference formulations (#229 and #234), was 0.3 wt % for tocopherol (α-TOC), acsorbyl palmitate (AscPalm) and mono-thioglycerol (MTG) and 0.1 wt % for butyl hydroxytoluene (BHT). Samples containing MTG were #233 and 235.
In FIG. 3, the assayed GLU content after storage at 25° C./60% RH for 7 days is plotted as the % of initial (time zero) GLU content.
Because the assay is based on a normal phase (NP) HPLC column, degradation products with RR<1 are more hydrophobic compared with GLU whereas more hydrophilic degradation products give RR>1.

[2] = Hydrogen peroxide stress test of buprenorphine lipid formulations (HPLC); type: physicochemical
Experimental: Lipid formulations of BUP also containing antioxidant were prepared in the following way: First, a liquid lipid stock solution of SPC/GDO/EtOH/antioxidant (or a reference stock solution without antioxidant) in the required proportions were prepared by weighing of all components into glass vials followed by mixing by end-over-end rotation for about 8 h or until completely homogenous liquids were obtained. Thereafter, BUP (powder) was added to achieve a nominal concentration of 7.9 wt % in all cases. The antioxidants were added in an amount corresponding to common previous use in pharmaceutical products.
The following stress test was performed to evaluate the effect of the four different antioxidants (Table 1): Oxidative degradation was induced by adding 20 μL, H2O2 (30%)/mL formulation followed by equilibration of the formulations for 48 hours at RT (dark). Analysis of BUP and any oxidation degradation product (DP) in the formulations was performed by HPLC (reversed phase column) with UV detection at 288 nm.
The protective effect of different MTG concentrations was assessed by performing a stress test according to Example 1. […] The formulations were thereafter analysed by HPLC as described in Example 1 and the relative area % of the main oxidation degradation product (DP) peak (relative retention RR=1.053) was determined.

[3] = storage at 25° C./60% RH for 7 days

## OCC(O)CS (stereo not drawn) [MTG, Mono-thioglycerol]
[1]; compared with other lipid soluble antioxidants
  suppressing the oxidative degradation of glucagon: more efficient than other lipid soluble antioxidants
[1]; [3]
  formation of Met(O)27glucagon (degradation products with RR>1, % Total Area, FIG. 4): most efficient
  assayed GLU content as % of initial (time zero) GLU content (FIG. 3): best oxidation protection
[2]; H2O2 treated formulations, Table 2
  protecting BUP from oxidation degradation in the lipid formulation, compared with reference formulation: clearly superior
[2]; MTG 0-1.0 wt % in BUP/SPC/GDO/EtOH=7.9/41.1/41.1/10.0 wt %, H2O2, 48 hours at RT (dark)
  protective effect of different MTG concentrations on main oxidation DP (FIG. 1): significant protective effect

## CCCCCCCCCCCCCCCC(=O)OC[C@H](O)[C@H]1OC(=O)C(O)=C1O [AscPalm, acsorbyl palmitate, reference compound]
[1]; [3]
  assayed GLU content as % of initial (time zero) GLU content (FIG. 3): degrading of glucagon
